Results taken from US11319316B2, “Compounds that induce degradation of anti-apoptotic Bcl-2 family proteins and the uses thereof” (BioVentures, LLC, priority 2016, dated 2022).

Key:
Type in all cases: cell-based
[1] = test system: NCI-H146 cancer cells; assay: Cancer cell viability by MTS, 72 h, NCI-H146; details: Homo sapiens
Procedure: (§1) RS4; 11 and NCI-H146 cancer cells were incubated with vehicle or increasing concentrations of compounds of Formula (I) and Formula (II). At 72 hours post-treatment cell viability was measured by MTS and EC50 was calculated as a percentage of control cells treated with vehicle. Table 1 depicts the EC50 values of compounds of Formula (I) and Formula (II) against RS4; 11 and NCI-H146.

[2] = test system: IR-induced senescent WI38 cells (IR-SC); assay: Viability of IR-induced senescent WI38 cells (IR-SC), 72 h, PI staining and flow cytometry
Procedure: (§2) Normal WI38 (NSC) and IR-induced senescent WI38 cells (IR-SC) were incubated with vehicle or increasing concentrations of compounds of Formula (I) or Formula (II) for 72 hours. The cells were digested with 0.25% trypsin and 1 mM EDTA, and harvested in PBS containing 2% FBS. After incubation with propidium iodide (PI, 100 ng/ml) in PBS at room temperature for 1 minute, cells were centrifuged at 1,200 rpm for 6 minutes to remove PI and then resuspended in PBS containing 2% FBS for analysis using a flow cytometer. Viable cells (PI-cells) were analyzed by flow cytometry at a constant flow rate to count the number of cells and calculated as a percentage of control cells treated with vehicle. Table 1 depicts the EC50 values of the compounds of Formula (I) and compounds of Formula (II) against normal WI38 and IR-induced senescent WI38.

[3] = test system: Normal WI38 (NSC); assay: Viability of normal WI38 cells (NSC), 72 h, PI staining and flow cytometry; details: Homo sapiens, WI-38, viable (PI-) cells as percentage of vehicle control
Procedure: as §2

[4] = target: T1, Bcl-xL (Homo sapiens, UniProt Q07817); assay: Protein degradation assay (Western blot) in IR-SC WI38 cells; details: 2 μM; FIG. 1
T1 construct: endogenous in cells; host or cells: WI38 cells (normal NC-WI38 and ionizing-radiation-induced senescent IR-SC WI38)
Procedure: IR-SC WI38 cells were incubated with vehicle or increasing concentrations of XZ-14439 for 18 hours at increasing […] (FIG. 3A) and at a fixed concentration of XZ-14439 for increasing times (FIG. […]). The cells were digested with 0.25% trypsin and 1 mM EDTA, and harvested in RIPA lysis buffer with 1% Phosphatase Inhibitor Cocktail 3 and 1% Protease Inhibitor Cocktail. An equal amount of protein (15-30 μg/lane) from each cell extract was resolved on a 12% SDS-PAGE gel. Proteins were blotted onto a NOVEX PVDF membrane by electrophoresis. The membranes were blocked with TBS-T blocking buffer (5% nonfat milk in 25 mM Tris-HCL, pH 7.4; 3 mM KCl; […] NaCl; and 0.05% Tween) and probed with primary antibodies (at a predetermined optimal concentration) overnight at 4° C. or for 1 hour at room temperature. After extensive washing with TBS-T, the membranes were incubated with an appropriate peroxidase-conjugated secondary antibody for 1 hour at room temperature. After three washes with TBS-T, the proteins of interest were detected with ECL Western Blotting Detection Reagents and recorded with autoradiography (Pierce Biotech, Rockford, Ill., USA). The primary antibody Bcl-x (#2762), Bcl-2 antibody (#2872S) and β-actin (13E5, #4970) were purchased from Cell Signaling.
IR-SC WI38 (FIG. 4A) and RS4; 11 (FIG. 4B) cells were incubated with vehicle or increasing concentrations of compounds of Formula (I) or Formula (II) for 6 or 16 hours, at 1 μM (FIG. 4A) and 100 nm (FIG. 4B), respectively. The cells were harvested in RIPA lysis buffer with 1% Phosphatase Inhibitor Cocktail 3 and 1% Protease Inhibitor Cocktail. An equal amount of protein (15-30 μg/lane) from each cell extract was resolved on a 12% SDS-PAGE gel. Proteins were blotted onto a NOVEX PVDF membrane by electrophoresis. The membranes were blocked with TBS-T blocking buffer (5% nonfat milk in 25 mM Tris-HCL, pH 7.4; 3 mM KCl; 140 mM NaCl; and 0.05% Tween) and probed with primary antibodies (at a predetermined optimal concentration) overnight at 4° C. or for 1 hour at room temperature. After extensive washing with TBS-T, the membranes were incubated with an appropriate peroxidase-conjugated secondary antibody (Jackson ImmunoResearch Europe, Suffolk, UK) for 1 hour at room temperature. After three washes with TBS-T, the proteins of interest were detected with ECL Western Blotting Detection Reagents and recorded with autoradiography. The primary antibody Bcl-xl (#2762), Bcl-2 antibody (#2872S), Bcl-w (#2724S), Mcl-1 (#5453s) and β-actin (13E5, #4970) were purchased from Cell Signaling.

[5] = test system: RS4; 11 cancer cells; assay: Cancer cell viability by MTS, 72 h, RS4;11; details: Homo sapiens, RS4;11 cells
Procedure: as §1

[6] = target: T1, Bcl-xL; assay: Bcl-xL depletion in normal WI38 (NC-WI38) cells; details: 2 μM; FIG. 1

T1 sequence (Q07817 whole entry): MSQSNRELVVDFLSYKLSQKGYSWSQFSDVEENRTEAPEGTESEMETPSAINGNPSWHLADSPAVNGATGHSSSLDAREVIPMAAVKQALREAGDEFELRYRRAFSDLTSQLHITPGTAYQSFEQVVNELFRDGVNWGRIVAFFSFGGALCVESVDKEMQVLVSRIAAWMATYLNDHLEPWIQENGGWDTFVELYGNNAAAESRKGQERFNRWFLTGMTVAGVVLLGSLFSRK

EC50 [1]: > 2 µM
Bcl-xL depletion in IR-SC WI38 cells [4]: depletes Bcl-xL
EC50 [5]: > 2 µM
Bcl-xL depletion in normal WI38 (NC-WI38) [6]: depletes Bcl-xL
Structure (SMILES): O=C1CCC(N2C(=O)c3cccc(NCCOCCOCCOCc4cn(CCCC(=O)N5CCN(CC#Cc6ccc(OCCCc7sc(N8CCc9cccc(C(=O)Nc%10nc%11ccccc%11s%10)c9C8)nc7C(=O)O)c(F)c6)CC5)nn4)c3C2=O)C(=O)N1 (stereo not shown) [XZ-13906, 2-(8-(benzo[d]thiazol-2-ylcarbamoyl)-3,4-dihydroisoquinolin-2(1H)-yl)-5-(3-(4-(3-(4-(4-(4-((2-(2-(2-(2-(2,6-dioxopiperidin-3-yl)-1,3-dioxoisoindolin-4-ylamino)ethoxy)ethoxy)ethoxy)methyl)-1H-1,2,3-triazol-1-yl)butanoyl)piperazin-1-yl)prop-1-ynyl)-2-fluorophenoxy)propyl)thiazole-4-carboxylic acid]
EC50 ([2]; Homo sapiens, WI-38, IR-induced senescent WI38 cells, 72 hours, viable (PI-) cells as percentage of vehicle control): 2.4 µM
Ratio NSC/SC ([2]; ratio of WI38 EC50 in NSC to EC50 in IR-SC): 41.67
EC50 [3]: 100 µM
